The experiment concerns the target T1, Nox1 (Homo sapiens, UniProt Q9Y5S8).
T1 construct: Plasmids encoding full-length human cDNAs for Nox1 (pcDNA3.1-hNox1); expressed in transfected cells; host or cells: COS-22 (COS-7 stably expressing human p22phox), transient co-transfection
T1 sequence (Q9Y5S8 1-564): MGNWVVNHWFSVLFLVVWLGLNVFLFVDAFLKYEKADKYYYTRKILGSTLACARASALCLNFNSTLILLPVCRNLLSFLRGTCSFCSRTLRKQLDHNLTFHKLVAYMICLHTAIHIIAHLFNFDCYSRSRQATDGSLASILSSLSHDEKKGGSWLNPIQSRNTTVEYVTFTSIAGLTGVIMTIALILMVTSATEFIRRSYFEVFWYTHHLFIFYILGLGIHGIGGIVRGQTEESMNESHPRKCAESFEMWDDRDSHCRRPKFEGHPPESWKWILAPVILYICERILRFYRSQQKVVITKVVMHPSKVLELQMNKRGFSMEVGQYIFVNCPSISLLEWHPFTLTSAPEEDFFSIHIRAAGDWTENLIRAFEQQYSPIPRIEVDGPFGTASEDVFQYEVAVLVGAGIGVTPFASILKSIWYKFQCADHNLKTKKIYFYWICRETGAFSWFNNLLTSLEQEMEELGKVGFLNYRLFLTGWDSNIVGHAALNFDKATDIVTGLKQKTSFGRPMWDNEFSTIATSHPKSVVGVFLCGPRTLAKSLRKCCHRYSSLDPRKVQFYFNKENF
T1 sequence (P13498 2-195 partner limits assumed): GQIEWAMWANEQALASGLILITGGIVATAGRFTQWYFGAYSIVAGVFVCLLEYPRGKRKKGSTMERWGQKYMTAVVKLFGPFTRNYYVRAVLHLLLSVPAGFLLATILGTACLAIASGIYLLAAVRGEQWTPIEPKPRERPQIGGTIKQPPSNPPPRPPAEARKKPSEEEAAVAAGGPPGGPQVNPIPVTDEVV
Description: Constitutive Nox1 activity in transiently transfected COS-Nox1/NOXO1/NOXA1 cells, L-012 assay. Conditions: for IC50: constitutive activity, transiently transfected Cos-Nox1 cells, L-012, read-out: IC50 of ROS generation, Nox1 (L-012 assay); for Nox1 inhibitory activity: Table 2. It counts as cell-based. From the text:
Plasmids encoding full-length human cDNAs for Nox1 (pcDNA3.1-hNox1), NOXO1 (pcDNA3.1-hNOXO1), NOXA1 (pCMVsport 6-hNOXA1), p47phox (pCMV-Tag4A-hp47) and Nox4 (pcDNA3-hNox4) were kindly provided by Dr. David Lambeth (Emory University, Ga.). Plasmids encoding Nox1, NOXO1, or NOXA1 were transformed and amplified into Escherichia coli strain TOP10 (Invitrogen, Carlsbad, Calif.). Plasmids were purified using a QIAfilter plasmid purification kit (QIAGEN Inc., Valencia, Calif.). For human Nox4 expression, the BglII/NotI restriction fragment from the pcDNA3-hNox4 was subcloned into the plasmid pcDNA3.1/Hygro(−) (Invitrogen, Carlsbad, Calif.) to generate pcDNA3.1/Hygro-hNox4. The fragment sequence, in-frame insertion and orientation were validated by DNA sequencing after PCR amplification. pcDNA3.1/Hygro-hNox4 was amplified into Escherichia coli strain TOP10 and purified with a QIAfilter plasmid purification kit.
Cell transfection was carried out using Lipofectamine LTX and Plus reagent (Invitrogen, Carlsbad, Calif., USA), according to the manufacturer's instructions. COS-22 cells were transiently co-transfected with pcDNA 3.1-hNox1, pCMVsport 6-hNOXA1 and pcDNA3.1-hNoxO1 (COS-Nox1/NOXO1/NOXA1 cells) or with pcDNA3.1/Hygro-hNox4 (COS-Nox4 cells). Cells were used 24 hr after transfection. Adherent cells were harvested by incubating with 0.05% trypsin/EDTA for 5 min at 37° C. Following addition of DMEM/10% FBS to neutralize the trypsin, the cells were pelleted by centrifugation at 1100×g for 5 min at 4° C. and used for the experiments.
COS-Nox2, COS-Nox1/NOXO1/NOXA1, HEK-Nox5 and COS-22 cells were re-plated in OPTIMEM into 384-well white micro-plates (Greiner-Bio One GmbH, Germany) at a density of 2.5×10^3 cells/well for COS-Nox2 and 5×10^4 cells/well for all others. The cells were incubated at 37° C. in PBS containing […] L-012 for 10 min. Reaction was initiated by addition of 5 μM PMA in the case of Nox2 or 1 μM PMA/0.1 μM Ionomycin in the case of Nox5. Since Nox1 was constitutively active, Nox1-derived O2^•− was assessed by comparison to non-transfected cells (Cos22). Luminescence was quantified over time using a Biotek Synergy 4 Hybrid Multi-Mode Microplate Reader. The specificity of L-012 for O2^•− was confirmed by the addition of SOD (150 U/mL).
All data are expressed as means±SEM. IC50 values were determined using the GraphPad Prism software (GraphPad Software, San Diego, Calif.) for non-linear regression three-parameters, with constrain values of 100 and 0 for top and bottom, respectively, and assumes a Hill slope of 1.

From patent US10906876B2, “Tetrahydroisoquinolines as selective NADPH oxidase 2 inhibitors” (University of Pittsburgh—Of the Commonwealth System of …, priority 2013, dated 2021) come the findings set out here.

As for `C=C(C)CC1C2c3c(Br)cccc3C(CC2(C)C)N1Cc1cccc(F)c1` (racemic) [Compound 11f, (±)-(1S,4R,9S)-5-Bromo-10-(3-fluorobenzyl)-3,3-dimethyl-9-(2-methylallyl)-1,2,3,4-tetrahydro-1,4-(epiminomethano)naphthalene], the IC50 is more than 100 µM.
On the same count and under the same terms, the value for `C=C(C)CC1C2c3c(-c4ccc(Cl)c(Cl)c4)cccc3C(CC2(C)C)N1CCCCC` (racemic) [Compound 12c] was more than 100 µM.
On the same count and under the same terms, under `C=C(C)CC1C2c3c(Br)cccc3C(CC2(C)C)N1S(C)(=O)=O` (racemic) [Compound 14a, (±)-(1S,4R,9S)-5-Bromo-3,3-dimethyl-9-(2-methylallyl)-10-(methylsulfonyl)-1,2,3,4-tetrahydro-1,4-(epiminomethano)naphthalene] stands more than 100 µM.
Take `CC(C)CC1NC2CC(C)(C)C1c1c(Br)cccc12` (racemic) [Compound 13]: the “Nox1 inhibitory activity” value is “retained inhibitory activity” and the IC50 was found to be 32 ± 18 µM.
With `C=C(C)CC1NC2CC(C)(C)C1c1c(-c3ccc(Cl)c(Cl)c3)cccc12` (racemic) [Compound 12a, (±)-(1S,4R,9S)-5-(3,4-Dichlorophenyl)-3,3-dimethyl-9-(2-methylallyl)-1,2,3,4-tetrahydro-1,4-(epiminomethano)naphthalene], the IC50 was more than 100 µM.
Regarding `C=C(C)CC1C2c3c(Br)cccc3C(CC2(C)C)N1Cc1cccs1` (racemic) [Compound 11h, (±)-(1S,4R,9S)-5-Bromo-3,3-dimethyl-9-(2-methylallyl)-10-(thiophen-2-ylmethyl)-1,2,3,4-tetrahydro-1,4-(epiminomethano)naphthalene], the “Nox1 inhibitory activity” value is given as “virtually no effect” and the IC50 is more than 100 µM.
For `C=C(C)C[C@@H]1N[C@H]2CC(C)(C)[C@@H]1c1c(Br)ccc(Br)c12` [Compound 9], in that order: “active” and 60 ± 36 µM.
`C=C(C)CC1C2c3c(Br)cccc3C(CC2(C)C)N1Cc1c[nH]c2ccccc12` (racemic) [Compound 11c, (±)-(1S,4R,9S)-10-((1H-Indol-3-yl)methyl)-5-bromo-3,3-dimethyl-9-(2-methylallyl)-1,2,3,4-tetrahydro-1,4-(epiminomethano)naphthalene]: the IC50 is more than 100 µM.
The same measure, in the same setting: under `C=C(C)CC1C2c3c(-c4ccc(Cl)c(Cl)c4)cccc3C(CC2(C)C)N1Cc1ccc2c(c1)OCO2` (racemic) [Compound 12b, (±)-(1S,4R,9S)-10-(Benzo[d][1,3]dioxol-5-ylmethyl)-5-(3,4-dichlorophenyl)-3,3-dimethyl-9-(2-methylallyl)-1,2,3,4-tetrahydro-1,4-(epiminomethano)-naphthalene] stands more than 100 µM; under `C=C(C)CC1C2c3c(Br)cccc3C(CC2(C)C)N1Cc1ccnc2ccccc12` (racemic) [Compound 11b, (±)-(1S,4R,9S)-5-Bromo-3,3-dimethyl-9-(2-methylallyl)-10-(quinolin-4-ylmethyl)-1,2,3,4-tetra-hydro-1,4-(epiminomethano)naphthalene], more than 100 µM; under `C=C(C)CC1C2c3c(Br)cccc3C(CC2(C)C)N1S(=O)(=O)c1ccc(F)cc1` (racemic) [Compound 14b, (±)-(1S,4R,9S)-5-Bromo-10-((4-fluorophenyl)sulfonyl)-3,3-dimethyl-9-(2-methylallyl)-1,2,3,4-tetrahydro-1,4-(epiminomethano)naphthalene], more than 100 µM.
For `C=C(C)CC1C2c3c(Br)cccc3C(CC2(C)C)N1Cc1ccc2c(c1)OCO2` (racemic) [Compound 11d, (±)-(1S,4R,9S)-10-(Benzo[d][1,3]dioxol-5-ylmethyl)-5-bromo-3,3-dimethyl-9-(2-methylallyl)-1,2,3,4-tetrahydro-1,4-(epiminomethano)naphthalene], the IC50 is more than 100 µM.
`C=C(C)CC1NC2CC(C)(C)C1c1c(Br)cccc12` (racemic) [Compound 7, (±)-(1S,4R,9S)-5-Bromo-3,3-dimethyl-9-(2-methylallyl)-1,2,3,4-tetrahydro-1,4-(epimino-methano)-naphthalene]: the “Nox1 inhibitory activity” value is recorded as “active” and the IC50 was found to be 31 ± 0.7 µM.
With `C=C(C)CC1C2c3c(Br)cccc3C(CC2(C)C)N1Cc1cc(C)on1` (racemic) [Compound 11e, (±)-3-(1S,4R,9S)-5-Bromo-3,3-dimethyl-9-(2-methylallyl)-1,2,3,4-tetrahydro-1,4-(epimino-methano) naphthalen-10-yl)methyl)-5-methylisoxazole], the IC50 is more than 100 µM.
For the compound `C=C(C)CC1NC2CC(C)(C)C1c1ccccc12` (racemic) [Compound 8, (±)-(1S,4R,9S)-3,3-Dimethyl-9-(2-methylallyl)-1,2,3,4-tetrahydro-1,4-(epiminomethano)-naphthalene], the “Nox1 inhibitory activity” value was “inactive” and the IC50 is more than 100 µM.
As to `C=C(C)CC1C2c3c(Br)cccc3C(CC2(C)C)N1CCCCC` (racemic) [Compound 11g, (±)-(1S,4R,9S)-5-Bromo-3,3-dimethyl-9-(2-methylallyl-10-pentyl-1,2,3,4-tetrahydro-1,4-(epiminomethano)naphthalene], the “Nox1 inhibitory activity” value is “virtually no effect” and the IC50 was more than 100 µM.
For `C=C(C)CC1C2c3ccccc3C(CC2(C)C)N1Cc1cccc(F)c1` (racemic) [Compound 11a, (±)-(1S,4R,9S)-10-(3-Fluorobenzyl)-3,3-dimethyl-9-(2-methylallyl)-1,2,3,4-tetrahydro-1,4-(epiminomethano)naphthalene], the IC50 is more than 100 µM.
